Data published in US5496947A, “Quinolone carboxylic acid derivatives” (Dong Wha Pharmaceutical Industrial Co., Ltd., priority 1994, dated 1996).
Read-outs that look alike come from different tables or passages of the source.

Experiments:
[1] = system: Streptococcus faecalis ATCC 19433; test: MIC, 2-fold dilution method in micro-well plate, S. faecalis ATCC 19433; type: cell-based; conditions: Enterococcus faecalis; S. faecalis ATCC19433, 37° C.; read-out: Minimum Inhibitory Concentration
How it was run: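 Broth microdilution (2-fold series) with test compounds as hydrochloride salts in sterile water; overnight BHI culture at 37 °C inoculated to about (10^5-10^6)/2 cfu/ml per well. MIC read after incubation at 37 °C.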

[2] = system: Pseudomonas aeruginosa ATCC 27853; test: MIC, 2-fold dilution method in micro-well plate, P. aeruginosa; type: cell-based
How it was run: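 MIC was recorded after 37° C incubation of bacteria with serial two-fold dilutions of compound. Bacteria came from an overnight 37° C BHI culture; the final inoculum was about (10^5-10^6)/2 cfu/ml. Compounds were tested as hydrochloride salts diluted in sterile water from a 10 mg/ml stock.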

[3] = system: Citrobacter freundii ATCC 8090; test: MIC, 2-fold dilution method in micro-well plate, C. freundii; type: cell-based
How it was run: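 Broth 2-fold microdilution; compounds tested as hydrochloride salts in sterile water. Inoculum from overnight BHI broth culture at 37° C., final about (10^5-10^6)/2 cfu/ml per well; MIC read after incubation at 37° C.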

[4] = system: Acinetobacter calcoaceticus; test: MIC, 2-fold dilution method in micro-well plate, A. calcoaceticus; type: cell-based
[5] = system: Klebsiella pneumoniae ATCC 13883; test: MIC, 2-fold dilution method in micro-well plate, K. pneumoniae; type: cell-based
How it was run: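 Two-fold broth dilution in micro-wells of compound as hydrochloride salt in water. Overnight BHI culture at 37 °C inoculated to about (10^5–10^6)/2 cfu/ml final. MIC read after incubation at 37 °C.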

[6] = system: Streptococcus pneumoniae ATCC 6303; test: MIC, 2-fold dilution method in micro-well plate, S. pneumoniae; type: cell-based; conditions: S. pneuinoniae ATCC6303, 37° C., read-out: Minimum Inhibitory Concentration
How it was run: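 MIC by 2-fold serial microdilution of compounds as hydrochloride salts in water, against a BHI-grown overnight culture. Final inoculum was about (10^5–10^6)/2 cfu/ml. Plates were incubated at 37° C before the minimum inhibitory concentration was read.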

[7] = system: Shigella sonnei ATCC 25931; test: MIC, 2-fold dilution method in micro-well plate, S. sonnei; type: cell-based; conditions: S. sonnei ATCC25931, 37° C., read-out: Minimum Inhibitory Concentration
How it was run: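 Broth microdilution with 2-fold serial dilutions of compounds as hydrochloride salts in water. Overnight BHI culture of S. sonnei at 37° C added to give about (10^5-10^6)/2 cfu/ml per well. MIC read after incubation at 37° C.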

[8] = system: Streptococcus faecalis ATCC 29212; test: MIC, 2-fold dilution method in micro-well plate, S. faecalis ATCC 29212; type: cell-based; conditions: Enterococcus faecalis; S. faecalis ATCC29212, 37° C.; read-out: Minimum Inhibitory Concentration
How it was run: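 Compounds were tested as hydrochloride salts by 2-fold serial dilution in water in micro-well plates. Final inoculum was about (10^5-10^6)/2 cfu/ml from overnight BHI broth culture. MIC was read after culture at 37° C.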

[9] = system: Enterobacter aerogenes ATCC 13048; test: MIC, 2-fold dilution method in micro-well plate, E. aerogenes; type: cell-based; conditions: Klebsiella aerogenes
How it was run: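 Two-fold broth microdilution of hydrochloride salts dissolved in sterile water (10 mg/ml stock). Inoculum from overnight BHI culture at 37° C, about (10^5–10^6)/2 cfu/ml final in well. MIC read after incubation at 37° C.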

[10] = system: Escherichia coli ATCC 25922; test: MIC, 2-fold dilution method in micro-well plate, E. coli; type: cell-based
How it was run: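 Broth two-fold microdilution of hydrochloride salts in water against E. coli ATCC 25922 grown overnight in BHI at 37° C. Final inoculum about (10^5 -10^6)/2 cfu/ml; after incubation at 37° C, MIC was recorded.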

[11] = system: Proteus vulgaris ATCC 13315; test: MIC, 2-fold dilution method in micro-well plate, P. vulgaris; type: cell-based
How it was run: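 Two-fold broth dilution in micro-well plates; compounds tested as hydrochloride salts in water. Bacteria from overnight BHI broth culture at 37 °C inoculated to about (10^5–10^6)/2 cfu/ml final; MIC read after incubation at 37 °C.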

[12] = system: Salmonella typhimurium ATCC 14028; test: MIC, 2-fold dilution method in micro-well plate, S. typhimurium; type: cell-based; conditions: Salmonella enterica, read-out: Minimum Inhibitory Concentration
How it was run: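 Twofold broth microdilution with overnight BHI culture at 37 °C; inoculum about (10^5-10^6)/2 cfu/ml in wells. Compounds tested as hydrochloride salts from 10 mg/ml aqueous stock; MIC read after incubation at 37 °C.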

[13] = system: Streptococcus pyrogens ATCC 19615; test: MIC, 2-fold dilution method in micro-well plate, S. pyrogens; type: cell-based; conditions: S. pyrogenes ATCC19615, 37° C., read-out: Minimum Inhibitory Concentration
How it was run: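 Inoculum from overnight 37° C brain-heart infusion culture gave roughly (10^5-10^6)/2 cfu/mL per well against two-fold serial dilutions of hydrochloride-salt compound in water. Lowest concentration inhibiting growth after 37° C incubation taken as MIC.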

[14] = system: Serratia marcescens ATCC 8100; test: MIC, 2-fold dilution method in micro-well plate, S. marcescens; type: cell-based
How it was run: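 Broth microdilution (2-fold series) of hydrochloride salts in water; S. marcescens from overnight BHI culture at 37 °C inoculated to about (10^5-10^6)/2 cfu/ml. MIC read after cultivation at 37 °C.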

[15] = Pharmacokinetic properties in ICR mouse, oral and subcutaneous, Bio-Assay (Agar well method); type: in vivo; conditions: 40 mg/kg, average of four tests; for AUC / Cmax / Tmax / half-life / bioavailability: blood; for dose excreted: urine, read-out: Urine Recovery
Description: The pharmacokinetic properties are tested by orally administrating and subcutaneously injecting a test compound and a substance for control to a ICR Mouse with 22 g±10% weight, drawing blood after 10, 20, 30, 45, 60, 90, 120, 150, 180 and […] and analyzed by Bio-Assay (Agar well method).

[16] = system: Haemophilus influenza ATCC 35056; test: MIC, 2-fold dilution method in micro-well plate, H. influenzae; type: cell-based; conditions: H. influenzae ATCC35056, 37° C.; read-out: Minimum Inhibitory Concentration
How it was run: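 MIC by 2-fold broth microdilution; compounds as hydrochloride salts in sterile water (10 mg/ml stock). Overnight BHI culture inoculated at about (10^5-10^6)/2 cfu/ml final; MIC read after cultivation at 37° C.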

[17] = system: Enterobacter cloacae; test: MIC, 2-fold dilution method in micro-well plate, E. cloacae; type: cell-based; conditions: read-out: Minimum Inhibitory Concentration
[18] = system: Shigella flexneri ATCC 12022; test: MIC, 2-fold dilution method in micro-well plate, S. flexneri; type: cell-based; conditions: S. flexneri ATCC12022, 37° C., read-out: Minimum Inhibitory Concentration
How it was run: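 Two-fold broth dilution in microwell plates; compounds as hydrochloride salts in sterile water. Overnight BHI-broth culture at 37 °C used as inoculum, giving about (10^5–10^6)/2 cfu/ml per well. MIC read after cultivation at 37 °C.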

[19] = P. aerugirnosa ATCC27853, 37° C., read-out: Minimum Inhibitory Concentration
[20] = ATCC8090, read-out: Minimum Inhibitory Concentration
[21] = E. aerogenes ATCC13048, 37° C., read-out: Minimum Inhibitory Concentration
[22] = E. coli ATCC25922, 37° C., read-out: Minimum Inhibitory Concentration
[23] = P. vulgaris ATCC13315, 37° C., read-out: Minimum Inhibitory Concentration
[24] = S. marcescens ATCC8100, 37° C., read-out: Minimum Inhibitory Concentration
[25] = E. cloacae ATCC23355 (as in tables), 37° C.
[26] = C. freundii ATCC8090, 37° C., read-out: Minimum Inhibitory Concentration
[27] = ATCC13883, read-out: Minimum Inhibitory Concentration
[28] = ATCC13048, read-out: Minimum Inhibitory Concentration
[29] = ATCC13315, read-out: Minimum Inhibitory Concentration
[30] = A. calcoaceticus ATCC8090 (as in tables), 37° C., read-out: Minimum Inhibitory Concentration

Structure (SMILES)	MIC [1] [µg/mL]	MIC [2, 19] [µg/mL]	MIC [4, 20] [µg/mL]	MIC [6] [µg/mL]	MIC [7] [µg/mL]	MIC [8] [µg/mL]	MIC [10, 22] [µg/mL]	MIC [12] [µg/mL]	MIC [13] [µg/mL]	MIC [14, 24] [µg/mL]	AUC ([15]; sc, S.C) [ng·h/mL]	Cmax ([15]; sc, S.C) [ng/mL]	Tmax ([15]; sc, S.C) [h]	half-life ([15]; sc, S.C) [h]	dose excreted ([15]; po, P.O) [%]	dose excreted ([15]; sc, S.C) [%]	MIC [16] [µg/mL]	MIC [18] [µg/mL]	MIC [3, 26] [µg/mL]	MIC [5, 27] [µg/mL]	other results
Cc1c(F)c(N2CCNC(C)C2)cc2c1c(=O)c(C(=O)O)cn2-c1ccc(F)cn1.Cl (stereo not drawn) [Example 29, 5-methyl-7-(3-methyl-1-piperazinyl)-1-(5-fluoro-2-pyridyl)-6-fluoro-1,4-dihydro-4-oxoquinoline-3-carboxylic acid hydrochloride]	5	1.25	0.625	10	0.625	5	1.25	0.625	10	1.25	32600	8340	1.25	2.31	9.35	12.8	0.625	0.625	–	–	MIC [3, 20]: 0.625 µg/mL; MIC ([5]; K. pneumoniae ATCC13883, 37° C., read-out: Minimum Inhibitory Concentration): 1.25 µg/mL; MIC [9, 21]: 0.313 µg/mL; MIC [11, 23]: 1.25 µg/mL; MIC [17, 25]: 0.313 µg/mL
Cc1c(F)c(N2CCN(C)CC2)cc2c1c(=O)c(C(=O)O)cn2-c1ccc(F)cn1.Cl [Example 28, 5-methyl-7-(4-methyl-1-piperazinyl)-1-(5-fluoro-2-pyridyl)-6-fluoro-1,4-dihydro-4-oxoquinoline-3-carboxylic acid hydrochloride]	10	1.25	1.25	10	1.25	5	–	1.25	10	–	76100	6940	1	7.26	25.2	13.4	0.313	0.625	2.5	1.25	MIC [9, 28]: 0.625 µg/mL; MIC ([10]; ATCC25922, read-out: Minimum Inhibitory Concentration): 1.25 µg/mL; MIC [11, 29]: 0.625 µg/mL; MIC ([14]; ATCC8100, read-out: Minimum Inhibitory Concentration): 1.25 µg/mL; AUC ([15]; po, P.O): 62400 ng·h/mL; Cmax ([15]; po, P.O): 6360 ng/mL; Tmax ([15]; po, P.O): 0.87 h; bioavailability ([15]; po, P.O): 81.3%; half-life ([15]; po, P.O): 7.57 h; MIC [17]: 0.625 µg/mL
CC1CN(c2nc3c(cc2F)c(=O)c(C(=O)O)cn3-c2ccc(F)cn2)CCN1.Cl (stereo not drawn) [Example 14, 1-(5-fluoro-2-pyridyl)-6-fluoro-7-(3-methyl-1-piperazinyl)-1,4-dihydro-4-oxo-1,8-naphthyridine-3-carboxylic acid hydrochloride]	5	1.25	–	5	0.078	2.5	0.313	1.25	10	0.313	28100	4280	0.6	7.28	58.9	21.1	1.25	0.156	0.625	1.25	MIC [4, 30]: 0.625 µg/mL; MIC [9, 28]: 1.25 µg/mL; MIC [11, 23]: 0.625 µg/mL; AUC ([15]; po, P.O): 12500 ng·h/mL; Cmax ([15]; po, P.O): 2120 ng/mL; Tmax ([15]; po, P.O): 0.87 h; bioavailability ([15]; po, P.O): 44%; half-life ([15]; po, P.O): 3.81 h; MIC [17, 25]: 0.625 µg/mL
CC1CN(c2nc3c(cc2F)c(=O)c(C(=O)O)cn3-c2ccncc2F)CC(C)N1.Cl (stereo not drawn) [Example 10, 1-(3-fluoro-4-pyridyl)-6-fluoro-7-(3,5-dimethyl-1-piperazinyl)-1,4-dihydro-4-oxo-1,8-naphthyridine-3-carboxylic acid hydrochloride]	2.5	–	–	5	0.625	5	1.25	0.625	10	2.5	–	–	–	–	–	–	0.625	0.625	1.25	0.625	MIC ([2]; ATCC27853, read-out: Minimum Inhibitory Concentration): 0.25 µg/mL; MIC [4, 30]: 10 µg/mL; MIC [9, 21]: 1.25 µg/mL; MIC [11, 29]: 0.625 µg/mL; MIC [17]: 0.625 µg/mL
